Source: patent US12384756B2, “Piperidinedione derivatives” (INNOCURE THERAPEUTICS, INC., priority 2021, dated 2025)

Tests used:
CRBN = target: T1, CRBN (Homo sapiens, UniProt Q96SW2); assay: NanoBRET intracellular E3 ligase assay, CRBN binding affinity; details: BRET assay, compared with pomalidomide
T1 construct: host or cells: HEK 293T
Procedure: The binding affinity of the synthesized compounds to CRBN E3 ligase was measured using PROMEGA NANOBRET™ Intracellular E3 ligase Assay, CRBN [cat #N2910]. Bioluminescence resonance energy transfer (BRET) assay is a method that the transfer of luminescence energy of POI into a bound fluorescent tracer is measured. […] Thus, the affinity of a compound to the POI can be measure.
9.0 mg/ml of DDB1 expression vector and 1.0 mg/ml of NanoLuc-CRBN fusion vector were transfected using LIPOFECTAMINE™ 3000.
Then, the cell lines were treated with a compound prepared at various concentrations, and then mixed for 15 seconds. Then, cell walls were broken by using digitonin, and the mixture was reacted for 25 minutes. Then, the mixture was treated with luciferase substrate. The luminescence intensity and the fluorescence intensity were measure at donor emission wavelength (450 nm) and at acceptor emission wavelength (610 nm), and then BRET ratio was calculated and normalized. BRET ratio was calculated by the following formula: BRET ratio: Acceptor/Donor×1000 [4] CRBN Binding Affinity of the Compound

SHP2 = target: T2, SHP2 (Homo sapiens, UniProt Q06124); assay: SHP2 protein degradation by western blot in MV-4-11 cells; type: cell-based; details: MV-4-11, 24 hours; for DC50: 50% inhibition of protein expression, read-out: DC50 of SHP2-targeted PROTAC
T2 construct: SHP2 expressed in cells; endogenous in cells; host or cells: MV-4-11
T2 sequence (Q06124 1-593): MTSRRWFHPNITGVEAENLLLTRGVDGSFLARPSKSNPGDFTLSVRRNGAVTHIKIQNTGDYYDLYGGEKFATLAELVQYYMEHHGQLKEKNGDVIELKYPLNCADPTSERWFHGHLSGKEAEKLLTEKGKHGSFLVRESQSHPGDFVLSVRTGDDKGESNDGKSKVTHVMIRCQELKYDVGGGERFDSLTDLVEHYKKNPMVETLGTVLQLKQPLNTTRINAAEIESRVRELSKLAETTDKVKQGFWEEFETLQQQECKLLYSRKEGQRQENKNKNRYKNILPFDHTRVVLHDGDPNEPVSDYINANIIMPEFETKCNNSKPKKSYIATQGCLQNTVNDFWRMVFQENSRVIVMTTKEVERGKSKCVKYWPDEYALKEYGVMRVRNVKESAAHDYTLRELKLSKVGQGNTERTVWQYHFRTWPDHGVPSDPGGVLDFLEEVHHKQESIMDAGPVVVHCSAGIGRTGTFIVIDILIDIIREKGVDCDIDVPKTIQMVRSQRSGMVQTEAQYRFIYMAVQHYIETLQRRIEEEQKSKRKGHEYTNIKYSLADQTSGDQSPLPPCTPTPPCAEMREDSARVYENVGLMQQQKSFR
Procedure: (§1) Human hematologic cancer cell line [MV-4-11] was cultured in IMDM medium with 10% fetal bovine serum, penicillin [100 U/ml] and streptomycin [[…]]. The synthesized compound was prepared with a stock solution of 10 mM or 50 mM dissolved in DMSO [dimethyl sulfoxide], and it was sequentially diluted to treat the cell line.
To observe the PROTAC's degradation ability to SHP2 expressed in cells, the cells were aliquoted into a 12 well plate at a concentrations of 3×10^5 cells/well, and then the sample was treated for 24 hours. In order to conduct western blotting assay to confirm protein expression, the cell treated with the compound was treated for 30 minutes with 70 μL of RIPA buffer with wherein protease inhibitor is added. Then, cell lysate was collected on ice using a scraper and centrifuged at 4° C. 15,000 rpm for 30 minutes to obtain a supernatant containing protein. Then, SDS-PAGE is conducted for 10 μg of protein per sample, and the protein is transferred to a membrane. The protein is reacted with antibodies of anti-SHP2 and anti-GAPDH at 4° C. for 16 hours, and then, reacted with the secondary antibodies at room temperature for 1 hour. The protein expression is confirmed using SuperSignal™ West Pico PLUS chemiluminescence substrate and image analyzer. The protein expression inhibition was normalized based on the expression value of GAPDH. The amount of protein expression in each sample was measured based on the sample treated with 0.1% DMSO vehicle which was set to 100%. The amount of protein expression was quantified using the Image J program. The change in the amount of protein expression due to the treatment of compound (DC50: the concentration of compounds where the 50% inhibition of protein expression is achieved) was calculated using GraphicPad Prism 8.0 software.

[1] = tested on: Human hematologic cancer cell line [MV-4-11]; assay: Anti-proliferative activity (WST-8) of SHP2 targeted PROTAC in MV-4-11; type: cell-based; details: MV-4-11, 72 hours; for IC50: Homo sapiens, MV4-11, WST-8, read-out: IC50 of SHP2-targeted PROTAC (cell proliferation)
Procedure: as §1
The cell survival was calculated by steps of adding in each well […] of water soluble tetrazolium salt (WST-8) which produces formazon in response to dehydrogenase present in the electron transport chain in mitochondria, incubating for 3 hours, measuring the absorbance at 450 nm, and calculating […] PRISM 8.0 software.

T1 sequence (Q96SW2 whole entry): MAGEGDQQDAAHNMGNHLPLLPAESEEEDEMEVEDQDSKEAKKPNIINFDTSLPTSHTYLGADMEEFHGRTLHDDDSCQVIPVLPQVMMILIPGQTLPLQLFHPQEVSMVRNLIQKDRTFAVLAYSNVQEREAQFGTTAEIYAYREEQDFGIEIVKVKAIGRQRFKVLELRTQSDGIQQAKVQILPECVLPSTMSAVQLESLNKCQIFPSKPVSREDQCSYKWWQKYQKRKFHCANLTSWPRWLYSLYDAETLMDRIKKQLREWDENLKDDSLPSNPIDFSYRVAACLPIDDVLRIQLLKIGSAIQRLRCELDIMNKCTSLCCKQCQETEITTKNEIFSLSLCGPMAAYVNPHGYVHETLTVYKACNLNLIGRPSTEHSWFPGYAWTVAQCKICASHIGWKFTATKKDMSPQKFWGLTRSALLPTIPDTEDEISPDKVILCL
T1 sequence (Q16531 whole entry partner): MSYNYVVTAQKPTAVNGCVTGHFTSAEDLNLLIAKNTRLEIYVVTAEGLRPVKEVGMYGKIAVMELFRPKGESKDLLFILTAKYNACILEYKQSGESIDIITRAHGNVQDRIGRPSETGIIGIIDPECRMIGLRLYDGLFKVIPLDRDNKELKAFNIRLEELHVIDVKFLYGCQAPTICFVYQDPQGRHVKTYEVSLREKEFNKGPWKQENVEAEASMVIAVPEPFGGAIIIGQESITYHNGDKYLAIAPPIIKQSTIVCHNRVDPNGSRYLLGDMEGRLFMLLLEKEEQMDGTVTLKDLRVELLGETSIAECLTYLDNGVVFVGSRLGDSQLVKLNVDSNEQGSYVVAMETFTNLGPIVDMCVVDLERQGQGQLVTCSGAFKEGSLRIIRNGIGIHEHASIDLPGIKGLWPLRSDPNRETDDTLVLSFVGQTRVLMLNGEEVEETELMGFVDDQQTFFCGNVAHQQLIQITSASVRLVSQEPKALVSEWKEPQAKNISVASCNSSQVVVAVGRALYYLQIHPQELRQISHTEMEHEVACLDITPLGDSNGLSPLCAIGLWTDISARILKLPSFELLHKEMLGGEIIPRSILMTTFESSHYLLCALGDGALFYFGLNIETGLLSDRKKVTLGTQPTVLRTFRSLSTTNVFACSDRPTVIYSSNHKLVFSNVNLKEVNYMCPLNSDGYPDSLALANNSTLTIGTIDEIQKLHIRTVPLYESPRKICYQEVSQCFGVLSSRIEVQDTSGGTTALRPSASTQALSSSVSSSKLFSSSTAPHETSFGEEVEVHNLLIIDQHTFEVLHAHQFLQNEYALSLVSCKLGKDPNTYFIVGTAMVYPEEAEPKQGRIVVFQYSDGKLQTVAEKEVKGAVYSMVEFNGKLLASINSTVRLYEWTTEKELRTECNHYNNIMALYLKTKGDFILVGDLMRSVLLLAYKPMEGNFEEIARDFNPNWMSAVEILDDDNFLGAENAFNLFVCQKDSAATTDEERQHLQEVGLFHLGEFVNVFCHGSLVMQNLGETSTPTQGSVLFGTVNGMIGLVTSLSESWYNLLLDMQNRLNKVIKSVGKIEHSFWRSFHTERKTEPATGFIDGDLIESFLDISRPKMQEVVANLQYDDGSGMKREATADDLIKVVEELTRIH

CRBN binding affinity (in words) (CRBN)	SHP2 degradation (in words) (SHP2)	DC50 (SHP2) [nM]	IC50 [1] [nM]	Compound	inhibition of cancer cell proliferation (in words) [1]
excellent	–	–	–	Cc1nn(C2CCC(=O)NC2=O)c(=O)c2c(F)cccc12 (stereo not shown) [Ex. 7, 3-(8-fluoro-4-methyl-1-oxophthalazin-2(1H)-yl)piperidine-2,6-dione]	–
excellent	–	–	–	Cc1nn(C2CCC(=O)NC2=O)c(=O)c2c(N)cccc12 (stereo not shown) [Ex. 8, 3-(8-amino-4-methyl-1-oxophthalazin-2(1H)-yl)piperidine-2,6-dione]	–
excellent	–	–	–	COc1cccc2cnn(C3CCC(=O)NC3=O)c(=O)c12 (stereo not shown) [Ex. 11, 3-(8-methoxy-1-oxophthalazin-2(1H)-yl)piperidine-2,6-dione]	–
–	effectively degraded	29.9	507	C[C@@H]1OCC2(CCN(c3cnc(Sc4cccc(NC(=O)CCC(=O)NCCCOCCOCCOCCCNc5ccc6c(=O)n(C7CCC(=O)NC7=O)ncc6c5)c4Cl)c(N)n3)CC2)[C@@H]1N (stereo partly drawn) [Example 73, N1-(3-((3-amino-5-((3S,4S)-4-amino-3-methyl-2-oxa-8-azaspiro[4.5]decan-8-yl)pyrazin-2-yl)thio)-2-chlorophenyl)-N4-(3-(2-(2-(3-((2-(2,6-dioxopiperidin-3-yl)-1-oxo-1,2-dihydrophthalazin-6-yl)amino)propoxy)ethoxy)ethoxy)propyl)succinamide]	inhibited effectively
–	effectively degraded	70.2	685	C[C@@H]1OCC2(CCN(c3cnc(Sc4cccc(NC(=O)CCC(=O)N5CCN(C(=O)CCOCCOCCOCCOCCNc6cccc7cnn(C8CCC(=O)NC8=O)c(=O)c67)CC5)c4Cl)c(N)n3)CC2)[C@@H]1N (stereo partly drawn) [Example 77, N-(3-((3-amino-5-((3S,4S)-4-amino-3-methyl-2-oxa-8-azaspiro[4.5]decan-8-yl)pyrazin-2-yl)thio)-2-chlorophenyl)-4-(4-(1-((3-(2,6-dioxopiperidin-3-yl)-4-oxo-3,4-dihydrophthalazin-5-yl)amino)-3,6,9,12-tetraoxapentadecan-15-oyl)piperazin-1-yl)-4-oxobutanamide]	inhibited effectively
–	effectively degraded	24.1	422	C[C@@H]1OCC2(CCN(c3cnc(Sc4cccc(NC(=O)CCC(=O)N5CCN(C(=O)CCOCCOCCOCCOCCOCCNc6cccc7cnn(C8CCC(=O)NC8=O)c(=O)c67)CC5)c4Cl)c(N)n3)CC2)[C@@H]1N (stereo partly drawn) [Example 78, N-(3-((3-amino-5-((3S,4S)-4-amino-3-methyl-2-oxa-8-azaspiro[4.5]decan-8-yl)pyrazin-2-yl)thio)-2-chlorophenyl)-4-(4-(1-((3-(2,6-dioxopiperidin-3-yl)-4-oxo-3,4-dihydrophthalazin-5-yl)amino)-3,6,9,12,15-pentaoxaoctadecan-18-oyl)piperazin-1-yl)-4-oxobutanamide]	inhibited effectively
–	effectively degraded	23.6	337	C[C@@H]1OCC2(CCN(c3cnc(Sc4cccc(NC(=O)CCC(=O)N5CCN(C(=O)CCOCCOCCOCCOCCOCCOCCNc6cccc7cnn(C8CCC(=O)NC8=O)c(=O)c67)CC5)c4Cl)c(N)n3)CC2)[C@@H]1N (stereo partly drawn) [Example 79, N-(3-((3-amino-5-((3S,4S)-4-amino-3-methyl-2-oxa-8-azaspiro[4.5]decan-8-yl)pyrazin-2-yl)thio)-2-chlorophenyl)-4-(4-(1-((3-(2,6-dioxopiperidin-3-yl)-4-oxo-3,4-dihydrophthalazin-5-yl)amino)-3,6,9,12,15,18-hexaoxahenicosane-21-oyl)piperazin-1-yl)-4-oxobutanamide]	inhibited effectively
